± gives the expanded uncertainty stated by the source.
Conditions: for mass density: 100 kPa, Vibrating tube method; for mass density / electrical conductivity: Liquid; for electrical conductivity: 101.33 kPa, Direct current cell with electrodes; for Glass transition temperature: DSC

SMILES | mass density (283.15 K) | mass density (288.15 K) | mass density (293.15 K) | electrical conductivity (293.15 K) | mass density (298.15 K) | electrical conductivity (298.15 K) | mass density (303.15 K) | electrical conductivity (303.15 K) | mass density (308.15 K) | electrical conductivity (308.15 K) | mass density (313.15 K) | electrical conductivity (313.15 K) | mass density (318.15 K) | electrical conductivity (318.15 K) | mass density (323.15 K) | electrical conductivity (323.15 K) | Glass transition temperature | Normal melting temperature (Crystal, DTA)
O [water] | 999.7 ± 0.05 kg/m3 | 999.05 ± 0.05 kg/m3 | – | – | – | – | – | – | – | – | 992.31 ± 0.06 kg/m3 | – | 990.42 ± 0.06 kg/m3 | – | 988.3 ± 0.06 kg/m3 | – | – | –
CCCCCC[n+]1ccn(C)c1.O=S(=O)([N-]S(=O)(=O)C(F)(F)F)C(F)(F)F | 1386 ± 5 kg/m3 | 1381.41 ± 5 kg/m3 | 1376.82 ± 5 kg/m3 | – | 1371.8 ± 5 kg/m3 | – | 1367.65 ± 5 kg/m3 | – | 1363.1 ± 5 kg/m3 | – | 1357.5 ± 5 kg/m3 | – | 1352.61 ± 5 kg/m3 | – | 1349.44 ± 5 kg/m3 | – | – | –

The remaining lines, values ahead:

mass density (283.15 K) | mass density (288.15 K) | mass density (293.15 K) | electrical conductivity (293.15 K) | mass density (298.15 K) | electrical conductivity (298.15 K) | mass density (303.15 K) | electrical conductivity (303.15 K) | mass density (308.15 K) | electrical conductivity (308.15 K) | mass density (313.15 K) | electrical conductivity (313.15 K) | mass density (318.15 K) | electrical conductivity (318.15 K) | mass density (323.15 K) | electrical conductivity (323.15 K) | Glass transition temperature | Normal melting temperature (Crystal, DTA) | SMILES
1229.25 ± 6.8 kg/m3 | 1225.9 ± 6.7 kg/m3 | 1222.43 ± 6.7 kg/m3 | 0.00255 ± 0.00018 S/m | 1218.74 ± 6.7 kg/m3 | 0.00445 ± 0.00031 S/m | 1214.96 ± 6.7 kg/m3 | 0.00733 ± 0.00051 S/m | 1211.48 ± 6.7 kg/m3 | 0.0114 ± 0.0008 S/m | 1207.96 ± 6.6 kg/m3 | 0.0175 ± 0.0012 S/m | 1204.4 ± 6.6 kg/m3 | 0.0256 ± 0.0018 S/m | 1200.81 ± 6.6 kg/m3 | 0.0366 ± 0.0026 S/m | -49.00 ± 1.2 °C | – | C=CCCn1cc[n+](CCCC)c1.[Br-] [1-(3-butenyl)-3-butylimidazolium bromide]
1354.24 ± 15 kg/m3 | 1350.42 ± 15 kg/m3 | 1346.67 ± 14 kg/m3 | 0.0126 ± 0.00089 S/m | 1343.07 ± 14 kg/m3 | 0.0214 ± 0.0015 S/m | 1339.41 ± 14 kg/m3 | 0.0343 ± 0.0024 S/m | 1335.7 ± 14 kg/m3 | 0.0522 ± 0.0037 S/m | 1331.9 ± 14 kg/m3 | 0.0772 ± 0.0054 S/m | 1328.14 ± 14 kg/m3 | 0.116 ± 0.0081 S/m | 1324.34 ± 14 kg/m3 | 0.162 ± 0.011 S/m | -49.60 ± 1.2 °C | – | C=CCCn1cc[n+](C)c1.[Br-] [1-(3-butenyl)-3-methylimidazolium bromide]
1305.11 ± 5.7 kg/m3 | 1301.34 ± 5.7 kg/m3 | 1297.64 ± 5.7 kg/m3 | 0.014 ± 0.00098 S/m | 1294.11 ± 5.6 kg/m3 | 0.0226 ± 0.0016 S/m | 1290.54 ± 5.6 kg/m3 | 0.0353 ± 0.0025 S/m | 1286.92 ± 5.6 kg/m3 | 0.0524 ± 0.0037 S/m | 1283.26 ± 5.6 kg/m3 | 0.0747 ± 0.0052 S/m | 1279.57 ± 5.6 kg/m3 | 0.12 ± 0.0084 S/m | 1275.88 ± 5.6 kg/m3 | 0.162 ± 0.011 S/m | -63.48 ± 1.2 °C | 70.68 ± 1.1 °C | C=CCCn1cc[n+](CC)c1.[Br-] [1-(3-butenyl)-3-ethylimidazolium bromide]

Source: the NIST ThermoML archive (doi:10.1016/j.jct.2019.07.013)
